From paper PMC12396409, “Screening and hit evaluation of a microbial metabolite library against the pathogenic Plasmodium falciparum and Toxoplasma gondii parasites” (International Journal for Parasitology: Drugs and Drug …, 2025)
Like-named read-outs stand apart in the source and are kept apart here.

Legend:
[1] = test system: P. falciparum 3D7 parasites; test: P. falciparum growth inhibition assay, 1-cycle (72 h treatment), SYBR DNA staining (library screen at 2 μg/mL and dose-response); format: cell-based, Plasmodium falciparum; details: for activity at 2 µg/mL: Plasmodium falciparum
[2] = test system: P. falciparum 3D7 parasites; test: P. falciparum growth inhibition assay, 2-cycle (120 h treatment), delayed-death screen and dose-response; format: cell-based, Plasmodium falciparum; details: for activity at 2 µg/mL: Plasmodium falciparum
[3] = test system: T. gondii RH strain (RH-Tub-eYFP) tachyzoites; test: microbe, parasite or virus in culture; format: cell-based, Toxoplasma gondii; details: 72 h; for percent parasite growth at 2 µg/mL: Toxoplasma gondii
[4] = P. falciparum, 72 h, screen at 2 μg/mL, replicate 1
[5] = P. falciparum, 72 h, screen at 2 μg/mL, replicate 2
[6] = P. falciparum, 120 h, screen at 2 μg/mL, replicate 1
[7] = P. falciparum, 120 h, screen at 2 μg/mL, replicate 2
[8] = T. gondii, screen at 2 μg/mL, replicate 1
[9] = T. gondii, screen at 2 μg/mL, replicate 2
[10] = T. gondii, 2 μg/mL, values are growth (% of control)

O=C(O)/C=C/c1ccc(O)cc1 [Coumaric acid, p-]
Pf_72h_%Growth_Rep1 [1, 4]: 85.52%
Pf_72h_%Growth_Rep2 [1, 5]: 91.08%
Pf_120h_%Growth_Rep1 [2, 6]: 65.95%
Pf_120h_%Growth_Rep2 [2, 7]: 100.33%
Tg_72h_%Growth_Rep1 [3, 8]: 117.43%
Tg_72h_%Growth_Rep2 [3, 9]: 104.71%

Capreomycin sulfate
Pf_72h_%Growth_Rep1 [1, 4]: 82.18%
Pf_72h_%Growth_Rep2 [1, 5]: 86.69%
Pf_120h_%Growth_Rep1 [2, 6]: 94.57%
Pf_120h_%Growth_Rep2 [2, 7]: 87.91%
Tg_72h_%Growth_Rep1 [3, 8]: 114.86%
Tg_72h_%Growth_Rep2 [3, 9]: 91.40%

O=C1N[C@@H](Cc2ccc(O)cc2)C(=O)N2CCC[C@@H]12 [Cyclo(L-Pro-L-Tyr)]
Pf_72h_%Growth_Rep1 [1, 4]: 91.38%
Pf_72h_%Growth_Rep2 [1, 5]: 88.30%
Pf_120h_%Growth_Rep1 [2, 6]: 89.64%
Pf_120h_%Growth_Rep2 [2, 7]: 119.86%
Tg_72h_%Growth_Rep1 [3, 8]: 132.28%
Tg_72h_%Growth_Rep2 [3, 9]: 86.77%

CCCC(O)C(O)C1CC(OC)=CC(=O)O1 (stereo not drawn) [BIA-H1068]
Pf_72h_%Growth_Rep1 ([1]; P. falciparum 3D7, 72 h, library screen at 2 μg/mL, % growth, replicate 1): 88.88%
Pf_72h_%Growth_Rep2 ([1]; P. falciparum 3D7, 72 h, library screen at 2 μg/mL, % growth, replicate 2): 77.83%
Pf_120h_%Growth_Rep1 ([2]; P. falciparum 3D7, 120 h, library screen at 2 μg/mL, % growth, replicate 1): 95.79%
Pf_120h_%Growth_Rep2 ([2]; P. falciparum 3D7, 120 h, library screen at 2 μg/mL, % growth, replicate 2): 147.07%
Tg_72h_%Growth_Rep1 ([3]; T. gondii RH, library screen at 2 μg/mL, % growth, replicate 1): 107.81%
Tg_72h_%Growth_Rep2 ([3]; T. gondii RH, library screen at 2 μg/mL, % growth, replicate 2): 92.55%

Cc1cc2nc3c(=O)[nH]c(=O)nc-3n(C[C@H](O)[C@H](O)[C@H](O)CO)c2cc1N(C)C [Roseoflavin]
Pf_72h_%Growth_Rep1 ([1]; P. falciparum, 72 h, parasite screen 2 μg/mL, % growth, replicate 1): 11.70%
Pf_72h_%Growth_Rep2 ([1]; P. falciparum, 72 h, parasite screen 2 μg/mL, % growth, replicate 2): 10.95%
Pf_120h_%Growth_Rep1 ([2]; P. falciparum, 120 h, parasite screen 2 μg/mL, % growth, replicate 1): 4.42%
Pf_120h_%Growth_Rep2 ([2]; P. falciparum, 120 h, parasite screen 2 μg/mL, % growth, replicate 2): 7.07%
Mean ([3]; T. gondii, 2 μg/mL, mean of both replicates, growth (% of control)): 28.14
Replicate 1 [3, 10]: 40.04
Replicate 2 [3, 10]: 16.23
Tg_72h_%Growth_Rep1 ([3]; T. gondii, parasite screen 2 μg/mL, % growth, replicate 1): 40.04%
Tg_72h_%Growth_Rep2 ([3]; T. gondii, parasite screen 2 μg/mL, % growth, replicate 2): 16.23%

C/C=C/C[C@@H](C)[C@@H](O)[C@H]1C(=O)N[C@@H](C(C)C)C(=O)N(C)CC(=O)N(C)[C@@H](CC(C)C)C(=O)N[C@@H](C(C)C)C(=O)N(C)[C@@H](CC(C)C)C(=O)N[C@@H](C)C(=O)N[C@H](C)C(=O)N(C)[C@@H](CC(C)C)C(=O)N(C)[C@@H](CC(C)C)C(=O)N(C)[C@@H](C(C)C)C(=O)N1C [Cyclosporin D]
Pf_72h_%Growth_Rep1 [1, 4]: 1.31%
Pf_72h_%Growth_Rep2 [1, 5]: 3.21%
Pf_120h_%Growth_Rep1 [2, 6]: -2.52%
Pf_120h_%Growth_Rep2 [2, 7]: -5.39%
Tg_72h_%Growth_Rep1 [3, 8]: 61.91%
Tg_72h_%Growth_Rep2 [3, 9]: 54.60%

CC[C@H](C)C(=O)[C@@H](C)C1=CC(=O)C2=C(O[C@]3(C)CC[C@H]4O[C@@H](C(C)(C)O)CC[C@]4(C)[C@H]3C2)C1=O [Cochlioquinone B]
activity at 2 µg/mL ([1]; 3D7, P. falciparum, 72 h, screen at 2 μg/mL, replicate 1, read-out: Pf_72h_%Growth_Rep1): 61.4%
activity at 2 µg/mL ([1]; 3D7, P. falciparum, 72 h, screen at 2 μg/mL, replicate 2, read-out: Pf_72h_%Growth_Rep2): 52.9%
activity at 2 µg/mL ([2]; 3D7, P. falciparum, 120 h, screen at 2 μg/mL, replicate 1, read-out: Pf_120h_%Growth_Rep1): 47%
activity at 2 µg/mL ([2]; 3D7, P. falciparum, 120 h, screen at 2 μg/mL, replicate 2, read-out: Pf_120h_%Growth_Rep2): 44.2%
percent parasite growth at 2 µg/mL ([3]; T. gondii, screen at 2 μg/mL, replicate 1, read-out: Tg_72h_%Growth_Rep1): 110%
percent parasite growth at 2 µg/mL ([3]; T. gondii, screen at 2 μg/mL, replicate 2, read-out: Tg_72h_%Growth_Rep2): 83.8%

CN1C(=O)[C@]23C[C@H]4C(C)(C)[C@]5(CNc6c5ccc5c6OC=CC(C)(C)O5)C[C@@]41CN2CC[C@@]3(C)O [Derquantel]
Pf_72h_%Growth_Rep1 ([1]; library screen at 2 μg/mL, 72 h, % growth, replicate 1): 84.92%
Pf_72h_%Growth_Rep2 ([1]; library screen at 2 μg/mL, 72 h, % growth, replicate 2): 84.29%
Pf_120h_%Growth_Rep1 ([2]; library screen at 2 μg/mL, 120 h, % growth, replicate 1): 88.90%
Pf_120h_%Growth_Rep2 ([2]; library screen at 2 μg/mL, 120 h, % growth, replicate 2): 91.44%
Tg_72h_%Growth_Rep1 ([3]; library screen at 2 μg/mL, % growth, replicate 1): 207.28%
Tg_72h_%Growth_Rep2 ([3]; library screen at 2 μg/mL, % growth, replicate 2): 97.75%

CC1=C[C@@H]2/C=C(\C)CC[C@H](O)[C@H](O)/C=C/C(=O)[C@]23C(=O)N[C@@H](CC(C)C)[C@@H]3[C@@H]1C [Aspochalasin D]
activity at 2 µg/mL ([1]; 3D7, 72 h, library screen at 2 μg/mL, 72 h, % growth, replicate 1, read-out: Pf_72h_%Growth_Rep1): 71.8%
activity at 2 µg/mL ([1]; 3D7, 72 h, library screen at 2 μg/mL, 72 h, % growth, replicate 2, read-out: Pf_72h_%Growth_Rep2): 78.2%
activity at 2 µg/mL ([2]; 3D7, 120 h, library screen at 2 μg/mL, 120 h, % growth, replicate 1, read-out: Pf_120h_%Growth_Rep1): 74.4%
activity at 2 µg/mL ([2]; 3D7, 120 h, library screen at 2 μg/mL, 120 h, % growth, replicate 2, read-out: Pf_120h_%Growth_Rep2): 80.7%
percent parasite growth at 2 µg/mL ([3]; library screen at 2 μg/mL, % growth, replicate 1, read-out: Tg_72h_%Growth_Rep1): 5.85%
percent parasite growth at 2 µg/mL ([3]; library screen at 2 μg/mL, % growth, replicate 2, read-out: Tg_72h_%Growth_Rep2): 2.85%
